Assays:
OMT1 = OMT1 enzyme assays; type: biochemical, P. hexandrum; settings: 10 μg/mL OMT1, 1 mM SAM, 30 or 50 μM substrate, 30° C., 2 h
Description: The above protocol was also followed for the expression and purification of OMT1 from BL21 (DE3) E. coli harboring pET24b:OMT1.
Assay lacking SAM served as negative control.
(§1) Total reaction volumes were 50 μL.

[1] = target: T1, (−)-pluviatolide O-methyltransferase (OMT3) (Sinopodophyllum hexandrum, UniProt A0A0N9HMN6); test: In vitro characterization of recombinant OMT3 (steady state kinetics, substrate specificity); type: biochemical, P. hexandrum; settings: for acceptance as substrate by OMT3: (+)-pinoresinol 400 μM, (−)-matairesinol 40 μM, (−)-arctigenin 40 μM, quenched after 2 h
T1 construct: 6xHis (N); made in house; host or cells: E. coli BL21 (DE3), pET28a
T1 sequence (A0A0N9HMN6 1-372): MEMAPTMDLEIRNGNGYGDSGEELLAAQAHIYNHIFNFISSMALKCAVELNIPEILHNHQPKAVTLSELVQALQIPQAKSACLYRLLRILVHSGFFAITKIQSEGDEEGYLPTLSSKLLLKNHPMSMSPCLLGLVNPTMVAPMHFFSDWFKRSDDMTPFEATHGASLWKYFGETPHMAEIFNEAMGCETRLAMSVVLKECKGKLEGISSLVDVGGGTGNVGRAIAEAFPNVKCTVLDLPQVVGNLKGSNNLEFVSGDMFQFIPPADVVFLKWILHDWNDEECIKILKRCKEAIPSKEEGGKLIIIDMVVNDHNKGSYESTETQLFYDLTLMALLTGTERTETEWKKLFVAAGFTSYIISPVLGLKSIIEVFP

CYP71CU1 = target: T2, CYP71CU1 (Sinopodophyllum hexandrum, UniProt A0A0N9HTU1); test: CYP71CU1-microsome assays; settings: 1 mg/mL microsomes, 1 mM NADPH, 30 or 50 μM substrate, 30° C., 2 h
T2 sequence (A0A0N9HTU1 1-493): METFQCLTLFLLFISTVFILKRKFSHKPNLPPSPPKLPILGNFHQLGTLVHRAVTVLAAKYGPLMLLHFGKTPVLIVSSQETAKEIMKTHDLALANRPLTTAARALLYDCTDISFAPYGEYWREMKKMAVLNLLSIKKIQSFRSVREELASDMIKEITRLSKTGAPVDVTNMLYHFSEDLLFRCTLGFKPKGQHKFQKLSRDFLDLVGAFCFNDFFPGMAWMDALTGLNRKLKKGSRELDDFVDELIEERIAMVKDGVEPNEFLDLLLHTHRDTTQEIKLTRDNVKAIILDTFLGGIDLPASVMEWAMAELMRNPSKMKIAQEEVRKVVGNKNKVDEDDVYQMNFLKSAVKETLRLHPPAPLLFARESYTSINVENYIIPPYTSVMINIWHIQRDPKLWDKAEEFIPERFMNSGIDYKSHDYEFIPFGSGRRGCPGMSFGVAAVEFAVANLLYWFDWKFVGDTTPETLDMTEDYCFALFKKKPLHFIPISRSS
Description: Yeast growth, induction and microsome preparation were performed according to Pompon et al. Microsomes enriched with P450 were isolated in 50 mM Tris-Cl, pH=7.4, 20% glycerol, 1 mM EDTA, flash-frozen as pellets in liquid nitrogen and kept at −80° C. for long term storage. Total protein content was estimated by measuring UV absorbance at 280 nm on a NanoDrop 1000 spectrophotometer.
CYP71CU1-microsome assays contained 1 mg/mL of CYP71CU1-microsomes, 1 mM NADPH, 30 or 50 μM of substrate and 100 mM NaCl in sodium phosphate buffer (50 mM, pH 7.4). Assays with microsomes from WAT11 harboring an empty vector or lacking NADPH served as negative controls. […] Enzyme assays with both CYP71CU1-microsomes and OMT1 contained 1 mg/mL of CYP71CU1-microsomes, 1 mM NADPH, 10 μg/mL of purified OMT1, 1 mM SAM, 30 or 50 μM of substrate and 100 mM NaCl in sodium phosphate buffer (50 mM, pH 7.4).
All substrates [(−)-matairesinol, (−)-arctigenin, (−)-pluviatolide, (−)-5′-desmethoxy-yatein, (−)-yatein, (−)-deoxypodophyllotoxin, and (−)-podophyllotoxin] were derived from a 100% DMSO stock; final concentration of DMSO in enzyme assays was kept constant at 5%. Total reaction volumes were 50 μL. Reactions were initiated by the addition of enzyme and incubated at 30° C.
After 2 h of incubation, reactions were quenched by the addition of 1 volume of acetonitrile with 0.1% TFA and clarified by centrifugation for 10 min at 17,000 g.

CYP71BE54 = target: T3, CYP71BE54 (Sinopodophyllum hexandrum, UniProt A0A0N9HT29); test: CYP71BE54-microsome assays; settings: 4 mg/mL microsomes, 1 mM NADPH, 50 μM substrate, 30° C., 2 h
T3 sequence (A0A0N9HT29 1-507): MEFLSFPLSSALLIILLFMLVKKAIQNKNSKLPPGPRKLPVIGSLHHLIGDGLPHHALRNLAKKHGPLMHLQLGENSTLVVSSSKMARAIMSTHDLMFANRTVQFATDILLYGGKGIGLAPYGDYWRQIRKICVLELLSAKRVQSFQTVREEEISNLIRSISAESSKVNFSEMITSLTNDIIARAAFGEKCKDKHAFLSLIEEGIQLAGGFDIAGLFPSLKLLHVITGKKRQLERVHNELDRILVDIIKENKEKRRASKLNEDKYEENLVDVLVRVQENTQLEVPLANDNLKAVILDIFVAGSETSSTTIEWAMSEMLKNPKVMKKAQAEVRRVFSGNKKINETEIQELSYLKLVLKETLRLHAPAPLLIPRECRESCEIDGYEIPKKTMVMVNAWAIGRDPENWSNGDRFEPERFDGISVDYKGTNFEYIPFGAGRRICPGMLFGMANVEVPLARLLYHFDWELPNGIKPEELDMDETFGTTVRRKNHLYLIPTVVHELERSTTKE
Description: as §1

2-ODD = target: T4, 2-ODD (Sinopodophyllum hexandrum, UniProt A0A0N9HQ36); test: 2-ODD enzyme assays; type: biochemical, P. hexandrum; settings: 5 μg/mL 2-ODD, 2-oxoglutarate, FeSO4, 30 μM substrate, 30° C., 2 h
T4 construct: 6xHis (C); made in house; host or cells: E. coli BL21 (DE3), pET24b
T4 sequence (A0A0N9HQ36 whole entry): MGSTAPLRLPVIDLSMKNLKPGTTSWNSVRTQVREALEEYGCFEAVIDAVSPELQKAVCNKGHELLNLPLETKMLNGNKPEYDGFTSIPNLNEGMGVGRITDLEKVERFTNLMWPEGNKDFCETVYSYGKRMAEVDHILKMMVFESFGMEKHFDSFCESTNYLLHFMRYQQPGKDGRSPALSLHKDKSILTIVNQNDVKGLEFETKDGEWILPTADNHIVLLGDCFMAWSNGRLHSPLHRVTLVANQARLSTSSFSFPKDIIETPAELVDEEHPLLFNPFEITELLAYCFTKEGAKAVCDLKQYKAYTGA
Description: The above protocol was also followed for the expression and purification of 2-ODD from BL21 (DE3) E. coli harboring pET24b:2-ODD except for the following changes: the 2 L culture at OD600=0.6 was cooled to 16° C. and induced with 100 μM IPTG. The culture was further incubated at 16° C. for 24 h and cooled in ice water before proceeding with purification.
Assays lacking enzyme or 2-oxoglutarate served as negative controls.
as §1

Compound	activity of OMT1 on substrate (OMT1)	acceptance as substrate by OMT3 [1]	activity of CYP71CU1 on substrate (CYP71CU1)	activity of CYP71BE54-enriched microsomes on substrate (CYP71BE54)	other results
COc1cc(C[C@H]2C(=O)OC[C@@H]2Cc2ccc(OC)c(OC)c2)ccc1O [(−)-arctigenin]	not active	much lower efficiency	not active	–	–
COc1ccc(C[C@H]2C(=O)OC[C@@H]2Cc2ccc3c(c2)OCO3)cc1OC [(−)-5′-desmethoxy-yatein]	–	–	–	No activity	activity of 2-ODD on substrate, compared to (−)-yatein (2-ODD): some activity
COc1cc([C@@H]2c3cc4c(cc3[C@H](O)[C@H]3COC(=O)[C@H]23)OCO4)cc(OC)c1OC [(−)-podophyllotoxin]	–	–	–	No activity	–
COc1cc(C[C@H]2COC(=O)[C@@H]2Cc2ccc(O)c(OC)c2)ccc1O [(−)-matairesinol]	not active	much lower efficiency	not active	–	–
COc1cc(C[C@H]2C(=O)OC[C@@H]2Cc2ccc3c(c2)OCO3)ccc1O [(−)-pluviatolide]	not active	–	not active	–	kcat ([1]; (−)-pluviatolide methylation by OMT3 purified from E. coli, 1 mM SAM, 22° C., pH 7.4): 0.72 s⁻¹; Km ([1]; (−)-pluviatolide methylation by OMT3 purified from E. coli, 1 mM SAM, 22° C., pH 7.4, read-out: apparent Km): 1.4 µM; activity of 2-ODD on substrate, compared to (−)-yatein (2-ODD): negligible activity
COc1cc(C[C@H]2C(=O)OC[C@@H]2Cc2ccc3c(c2)OCO3)cc(OC)c1OC [(−)-yatein]	–	–	–	No activity	–
COc1cc(C2OCC3C(c4ccc(O)c(OC)c4)OCC23)ccc1O (single isomer, unassigned; (+)) [(+)-pinoresinol]	–	did not turn over	–	–	–
